{"source": "patent US8937096B2", "about": "“Use of benzo-fused heterocyle sulfamide derivatives for the treatment of mania and bipolar disorder” (priority 2005, dated 2015)", "key": {"dominant rats": {"system": "dominant rats", "test": "Dominant-Submissive Relations (DSR) assay: Reduction of Dominant Behavior Model (RDBM) of mania", "format": "in vivo, rat", "protocol": "The DSR assay is divided into two models: Reduction of Dominant Behavior Model (RDBM) of mania and Reduction of Submissive Behavior Model (RSBM) of depression. The RDBM, wherein the dominant animals are treated with test compound, is predictive of the ability of the test compound to treat mania. The RSBM, wherein the submissive animals are treated with test compound, is predictive of the ability of the test compound to treat depression.\nMale Sprague Dawley rats (140 to 160 g) from Charles River Laboratories Wilmington, Mass. were used in this assay. Shipments of rats were received at two-week intervals. Each shipment went through five-day quarantine, one-week acclimation period, and one-week selection process, followed by five-weeks of drug or vehicle treatment to those pairs selected.\nRats were housed four per cage. Access to food was restricted to one hour per day after testing on Monday through Thursday. After testing on Friday, rats had free access to food until being fasted again on Sunday. At no time were the rats deprived of water. The food deprivation periods used had little effect on weight gain as the average weight of rats was about 300 g at the end of the study. At the conclusion of experiment rats were sacrificed by decapitation, the trunk blood and brains were collected for in vitro experiments and drug concentration measurements.\nThe basic testing apparatus consisted of two chambers connected with a tunnel only large enough to allow one rat to pass through at a time. On the floor, at the mid-point of the tunnel was a container of sweetened milk. This basic apparatus was replicated, so that a total of four pairs of rats can be video tracked simultaneously. The camera can distinguish rats marked by different colors. Thus, the rats' heads were colored for the purpose of video tracking, red in one cage and yellow in the other cage. Only one animal at a time can have comfortable access to the feeder, but both animals can drink milk during the five-minute daily session. During the five-minute daily sessions, time spent in the feeder zone by each rat was recorded by the video tracking software and saved into a text file.\nThe test began with a random assignment of rats into pairs. Each member of a pair was placed in an opposite chamber of the testing apparatus. The time spent in the feeder zone by each animal was recorded. During the first week (five days) of testing the animals habituate to the new environment. Dominance was assigned to the animal with the highest score during the second week of testing if three criteria were achieved. First, there must have been a significant difference (two-tailed t-test, P<0.05) between the average daily drinking scores of both animals. Second, the dominant animal score must have been at least 25% greater than the submissive animal's score. Finally, there must have been no “reversals” during the pair selection week where the putative submissive rat out-scored its dominant partner on isolated occasions. Ideally there were minimal reversals during the acclimation week as well. About twenty-five to thirty-three percent of the initial animal pairs achieved these criteria and only these pairs were continued in the study.\nSignificant differences between time spent on the feeder by dominant and submissive rats were determined by ANOVA using GraphPad Prism software (GraphPad Software, Inc. San Diego, Calif.) followed by a two-tailed t-test (P<0.05). Comparisons were made between treatment groups using normalized dominance level values in paired animals. The dominance level is a value that measures social relation between paired subjects. Dominance level (DL)=FTD−FTS where FTD is the feeder time of dominant rats and FTS is the feeder time of submissive rats. The normalization was conducted according to the formula: Dominance Level(week n in %)=(Dominance Level(week n))/(Dominance Level(week 2) […]"}, "[1]": {"system": "amygdala kindled seizures", "test": "Amygdala Kindling Assay (Kindling Prevention)", "format": "in vivo, rat"}, "[2]": {"system": "hippocampal kindled seizures", "test": "Rat Hippocampal Kindling Test (Interruption of Kindled State)", "format": "in vivo", "protocol": "In the present rapid hippocampal kindling model adult male Sprague-Dawley rats (300-400 g) were surgically implanted with bipolar electrodes placed in the hippocampus. […] One week later, the rats received 2-3 supra-threshold stimulations delivered every 30 min before treatment with test compound, to ensure stability of the behavioral seizure stage and after-discharge duration. Fifteen minutes after the last stimulation, a single dose of vehicle or test compound was administered i.p. (intraperitoneally). After 15 min, each rat was then stimulated every 30 min for 3 to 4 h. After each stimulation, individual seizure scores and after-discharge durations were recorded. The group mean±SEM were calculated for each parameter. Eight rats per dose and a minimum of four doses were used to establish an ED50 value. Efficacy was measured as the ability of a compound to modify the seizure score (severity of spread) and after-discharge duration (ADD; excitability) of the generalized seizures.\nThus, according to the theories presented in current literature (Ghaemi, S. N., Boiman, E. E., and Goodwin, F. K., Soc. of Bio. Psychiatry, (1999), vol. 45, pp 137-144; Stoll, A. L., and Severus, W. E., Harvard Rev. Psychiatry, July/August (1996), Vol. 4, No. 2, pp 77-89) a decrease in seizure score and/or ADD may also be predictive of the ability of a test compound to treat the cycling associated with bipolar disorder."}, "[3]": {"system": "LTG-resistant amygdala kindled seizures", "test": "Lamotrigine Resistant Amygdala Kindled Rat Model (Interruption of Kindled State)", "format": "in vivo", "conditions": "75 mg/kg i.p.", "protocol": "Amygdala kindling is less severe than hippocampal kindling, such that many AEDs are effective against amygdala kindled seizures, but are ineffective against hippocampal kindled seizures. […] Fifteen minutes after the last stimulation, a single dose of vehicle or test compound was administered i.p. After 15 min, each rat was then stimulated every 30 min for 3 to 4 h. After each stimulation, individual seizure scores and after-discharge durations were recorded. The group mean±SEM was calculated for each parameter."}}}
{"smiles": "NS(=O)(=O)NC[C@H]1COc2cc(Cl)ccc2O1", "note": "[Compound #8, (2S)-(−)-N-(6-Chloro-2,3-dihydro-benzo[1,4]dioxin-2-ylmethyl)-sulfamide]", "values": [{"measurement": "AOT50 compared with lithium", "setting": "dominant rats; 0.05 mg/kg and 0.5 mg/kg, non-linear regression fit of normalized daily DL values", "result": "significantly shorter from that of lithium"}, {"measurement": "first day of consistent lack of statistical significance between feeder time of dominant and submissive rats (activity onset time)", "setting": "dominant rats; 0.05 mg/kg p.o. QD", "result": 3, "unit": "days"}, {"measurement": "first day of consistent lack of statistical significance between feeder time of dominant and submissive rats (activity onset time)", "setting": "dominant rats; 0.5 mg/kg p.o. QD", "result": 4, "unit": "days"}, {"measurement": "dominance level (DL) values vs vehicle", "setting": "dominant rats; 0.5 mg/kg p.o. QD, 5 weeks, strongest effect", "result": "significant difference in dominance level (DL) values between vehicle and compound treated rats starting in the second week"}, {"measurement": "first day of consistent lack of statistical significance between feeder time of dominant and submissive rats (activity onset time)", "setting": "dominant rats; 2.5 mg/kg p.o. QD", "result": 10, "unit": "days"}, {"measurement": "dominance level (DL) response", "setting": "dominant rats; 2.5 mg/kg, 5.0 mg/kg and 50.0 mg/kg p.o., compared with 0.5 mg/kg dose (not significantly different)", "result": "weaker response"}, {"measurement": "first day of consistent lack of statistical significance between feeder time of dominant and submissive rats (activity onset time)", "setting": "dominant rats; 5.0 mg/kg p.o. QD", "result": 11, "unit": "days"}, {"measurement": "first day of consistent lack of statistical significance between feeder time of dominant and submissive rats (activity onset time)", "setting": "dominant rats; 50.0 mg/kg p.o. QD", "result": 3, "unit": "days"}, {"measurement": "ED50", "setting": "dominant rats; Rattus norvegicus, po, p.o. QD, calculated", "result": "0.03 ± 0.004", "unit": "mg/kg"}, {"measurement": "difference between dominant and submissive rats lost", "setting": "dominant rats; dominant rats treated p.o. QD at 0.05 mg/kg, 0.5 mg/kg and 50.0 mg/kg", "result": "lost after the first week of treatment"}, {"measurement": "difference between dominant and submissive rats lost", "setting": "dominant rats; dominant rats treated p.o. QD at 2.5 mg/kg and 5.0 mg/kg", "result": "after the second week of treatment"}, {"measurement": "dominant behavior", "setting": "dominant rats; overall result of the assay", "result": "reduced dominant behavior"}, {"measurement": "Emax in the RDBM", "setting": "dominant rats; p.o. QD, calculated", "result": "116.4±2.3", "unit": "%"}, {"measurement": "permissiveness of the treated dominant rats", "setting": "dominant rats; treated dominant rats permitted submissive partners to increase time on the feeder", "result": "observed to increase"}, {"measurement": "acquisition of kindling", "setting": "[1]; 75 mg/kg i.p.", "result": "prevented the acquisition of the full generalized kindled seizure"}, {"measurement": "seizure score at the conclusion of the drug- and stimulus-free period", "setting": "[1]; 75 mg/kg i.p. during kindling acquisition, Racine scale, vehicle 4.6±0.24", "result": "1.4±0.40"}, {"measurement": "after-discharge (AD) duration vs vehicle", "setting": "[1]; 75 mg/kg i.p., kindling acquisition phase", "result": "No statistical difference between treatment groups"}, {"measurement": "rats with significant reduction in global seizure activity (score <3)", "setting": "[2]; after treatment i.p.", "result": "6 out of 8"}, {"measurement": "rats with seizure scores significantly reduced from 5 to 1", "setting": "[2]; i.p., p=0.0003", "result": "4 out of 8"}, {"measurement": "effect on the ADD (after-discharge duration)", "setting": "[2]; i.p., p=0.07", "result": "no statistically significant effect"}, {"measurement": "after-discharge duration reduced", "setting": "[3]", "result": 86, "unit": "%"}, {"measurement": "rats exhibiting ataxia and sedation", "setting": "[3]; n=9", "result": "Four of the nine"}, {"measurement": "rats protected", "setting": "[3]; n=9", "result": "Eight out of nine"}, {"measurement": "after-discharge duration after treatment", "setting": "[3]; from 73 sec", "result": 10, "unit": "s"}, {"measurement": "seizure score after treatment", "setting": "[3]; reduced from a 5", "result": 0.8}]}
